# Data published in patent publication US20090312414A1, “Treatment Of Lower Urinary Tract Dysfunction With CB2-Receptor-Selective Agonists” (priority 2008, published 2009).
# Columns and labels:
# CB1 receptor = CB1 receptor (Homo sapiens, UniProt P21554); experiment: biochemical; type: binding; settings: displaces 50% of a radiolabeled agonist
# [1] = system: conscious rats treated with cyclophosphamide; experiment: Cystometry in cyclophosphamide-induced model of IC/PBS; type: in vivo, rat; settings: 10 mg/kg IP; for Bladder capacity (BC): CYP-treated rats
# Source text: This study involved the determination of the acute effect of the compound of Formula I on bladder function in conscious rats in the cyclophosphamide-induced model of interstitial cystitis/painful bladder syndrome (“IC/PBS”) using cystometry. The clinical use of cyclophosphamide (“CYP”), a chemotherapy drug that is given as a treatment for many types of cancer, can cause inflammation of the bladder lining, inducing acute hemorrhagic cystitis or chronic cystitis, and result in side effects in the bladder that can be seen in patients with IC/PBS. (Levine L A, Richie J P. Urological complications of cyclophosphamide. J Urol. 1989; 141:1063; Stillwell T J, Benson R C. Cyclophosphamide-induced cystitis. A review of 100 patients. Cancer. 1988; 61:451). The cystitis is not caused by CYP itself, but to acrolein, a toxic CYP metabolite produced by microsomal metabolism that is eliminated by the bladder (Levine L A, Richie J P. Urological complications of cyclophosphamide. J Urol. 1989; 141:1063). In rats, IP administration of CYP induces bladder inflammation and disrupts the urothelial lining, increasing afferent nerve sensitivity and leading to bladder overactivity. Bladder weight is increased due to the inflammation, and bladder capacity is decreased (Corrow K A, Vizzard M A. Phosphorylation of extracellular signal-regulated kinases in urinary bladder in rats with cyclophosphamide-induced cystitis. Am J Physiol. 2007; 293:R125; Lecci A, Birder L A, Meini S, Catalioto R-M, Tramontana M, Giuliani S, Criscuoli M, Maggi C A. Pharmacological evaluation of the role of cyclooxygenase isoenzymes on the micturition reflex following experimental cystitis in rats. Br J Pharmacol. 2000; 130:331).
# Male Sprague Dawley rats, weighing 250 g, were maintained under standard laboratory conditions with a 12:12 light/dark cycle and free access to food pellets and water. For surgical procedures, the rats were anesthetized with IP administration of Equinthensin solution (3 ml/kg).
# The bladder was exposed via a mid-line incision of the lower abdomen, and the bladder was freed from adhering tissues and emptied. A saline-filled polyethylene catheter (0.58 mm ID and 0.96 mm OD) was implanted in the bladder via an incision at the bladder dome and sutured in place with silk thread. For IV compound administration, a similar PE catheter filled with saline containing sodium heparin (40 IU/ml) was inserted into a jugular vein. The cannulas were exteriorized through a subcutaneous tunnel in the retroscapular area and are connected with a plastic adaptor in order to avoid removal by the animal. […]
# Bladder capacity (“BC”) and micturition pressure (“MP”) were the urodynamic parameters evaluated from the cystometrogram. […]
# Sequence of CB1 receptor (P21554 whole entry): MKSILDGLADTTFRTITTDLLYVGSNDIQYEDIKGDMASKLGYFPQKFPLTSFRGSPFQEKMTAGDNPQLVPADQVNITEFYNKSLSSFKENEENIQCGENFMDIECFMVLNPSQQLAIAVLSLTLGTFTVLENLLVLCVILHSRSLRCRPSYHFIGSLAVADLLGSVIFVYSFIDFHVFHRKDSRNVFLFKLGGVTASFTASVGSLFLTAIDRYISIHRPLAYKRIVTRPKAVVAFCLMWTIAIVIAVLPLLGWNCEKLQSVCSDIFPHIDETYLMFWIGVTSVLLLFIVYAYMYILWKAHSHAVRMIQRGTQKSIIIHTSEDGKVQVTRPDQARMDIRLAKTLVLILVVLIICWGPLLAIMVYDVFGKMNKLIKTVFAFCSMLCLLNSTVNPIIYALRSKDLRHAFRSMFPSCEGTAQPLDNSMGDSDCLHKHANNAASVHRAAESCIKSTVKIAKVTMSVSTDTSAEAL
structure (smiles),measurement,setting,value
CCCCCCC(C)(C)c1cc(O)c([C@H]2CC(=O)[C@H]3C[C@@H]2C3(C)C)c(OC(=O)/C=C/C(=O)O)c1 [Formula I],IC50,CB1 receptor,660 nM
same,Reduction of BC compared to pre-CYP treatment levels,[1]; 26 hr time point,29%
same,Reduction of BC compared to pre-CYP treatment levels,[1]; 28 hr time point,21%
same,Bladder capacity (BC),[1]; 2 hr post treatment (26 hr time point),0.57 ± 0.06 mL
same,Bladder capacity (BC),[1]; 4 h after administration (28 hr time point),0.63 ± 0.09 mL
